This is an account of results in patent US12129312B2, “Peptide compound, application thereof and composition containing same” (priority 2017, dated 2024).

Where two headings read alike, the source gives them in different places. Square brackets hold non-standard residues; d marks the D form. Peptide text beside a SMILES is read from it. * marks the point of attachment. Hydrocinnamoyl = O=C(CCc1ccccc1)*; Tic = O=C(O)[C@@H]1Cc2ccccc2CN1; NMeL = CN[C@@H](CC(C)C)C(=O)O

As usually defined, the EC50 is the midpoint of the concentration-response curve.

In this test the target is T1, human Chemokine like receptor 1 (Homo sapiens, UniProt Q99788).
T1 construct: host or cells: U2OS (Tango CMKLR1-bla U2OS)
T1 sequence (Q99788 1-373): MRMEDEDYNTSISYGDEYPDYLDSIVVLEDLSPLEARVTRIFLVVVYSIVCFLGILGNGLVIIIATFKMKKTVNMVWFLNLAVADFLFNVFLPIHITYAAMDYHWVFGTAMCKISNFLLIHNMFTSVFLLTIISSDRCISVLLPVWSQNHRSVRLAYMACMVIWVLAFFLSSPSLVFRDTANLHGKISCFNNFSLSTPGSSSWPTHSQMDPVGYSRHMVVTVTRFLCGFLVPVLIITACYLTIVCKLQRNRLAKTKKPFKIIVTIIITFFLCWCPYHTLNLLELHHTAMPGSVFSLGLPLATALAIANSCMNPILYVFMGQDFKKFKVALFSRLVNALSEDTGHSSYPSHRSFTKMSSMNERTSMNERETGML
Kind of test: Activation of Tango CMKLR1-bla U2OS cells (beta-lactamase FRET reporter). It counts as cell-based. As to conditions: read-out: EC50. In outline: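 Agonist mode in Tango CMKLR1-bla U2OS cells, 10000 cells/well seeded overnight, then 10-point 3-fold compound dilutions from 10 mM DMSO stock applied for 4 h at 37 °C, 5% CO2. Beta-lactamase reporter read with CCF4-AM FRET substrate; peptide (D-Tyr)-Phe-Leu-Pro-(D-Ser)-Gln-Phe-(D-Ala)-Tic-Ser served as positive control.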

Consider `CC(C)C[C@H](NC(=O)[C@H](Cc1ccccc1)NC(=O)[C@H](N)Cc1ccc(O)cc1)C(=O)N1CCC[C@H]1C(=O)N[C@H](CO)C(=O)N[C@@H](CCC(N)=O)C(=O)N[C@@H](Cc1ccccc1)C(=O)N[C@H](C)C(=O)N1Cc2ccccc2C[C@H]1C(=O)N[C@@H](CO)C(=O)O` [YW-3, (D-Tyr)-Phe-Leu-Pro-(D-Ser)-Gln-Phe-(D-Ala)-Tic-Ser, reference compound] (H-[dY]FLP[dS]QF[dA][Tic]S-OH), for which the EC50 (Tango CMKLR1-bla U2OS cells, 4 hours incubation, four-parameter fit of activation rate) turned out to be 19 nM.
`CC(C)C[C@@H](C(=O)N1CCC[C@H]1C(=O)N[C@H](CO)C(=O)N[C@@H](CCC(N)=O)C(=O)N[C@@H](Cc1ccccc1)C(=O)N[C@H](C)C(=O)N1Cc2ccccc2C[C@H]1C(=O)N[C@@H](CO)C(=O)O)N(C)C(=O)[C@H](Cc1ccccc1)NC(=O)[C@@H](Cc1ccc(O)cc1)NC(=O)CCc1ccccc1` [YW-111, 3-phenylpropanoyl-(D-Tyr)-Phe-(NMe-Leu)-Pro-(D-Ser)-Gln-Phe-(D-Ala)-Tic-Ser-OH] (Hydrocinnamoyl-[dY]F[NMeL]P[dS]QF[dA][Tic]S-OH): the EC50 (determination by the method of Effect Embodiment 1) was found to be 2 nM.
